Assay results reported in article PMC12587552, “A nitrogen-containing diphyllin derivative C156-P1 exhibited broad-spectrum antiviral activity against Flaviviridae viruses by preventing endosomal acidification” (Antimicrobial Agents and Chemotherapy, 2025).
Where two headings read alike, the source gives them in different places.

How the values were obtained:
[1] = system: ZIKV; design: method as in PMID 29033372, PMID 28694387; settings: cited from earlier work
[2] = system: DENV-2; design: method as in PMID 30125275; settings: read-out: EC50 against DENV-2 infection; cited from earlier work
[3] = in vitro; settings: human
[4] = system: DENV-2
[5] = system: DENV-2; experiment: microbe, parasite or virus in culture; settings: Dengue virus, DENV2, A549, 48 h, read-out: EC50 against DENV-2
[6] = target: V-ATPase (Homo sapiens, UniProt Q9Y487); experiment: ATPase activity assay on lysate of treated cells; type: cell-based; settings: A549 cells treated 24 h; C156-P1 100 nM or 1000 nM, PHY34 100 nM, Baf-A1 100 nM; 2 µg total cell protein
[7] = system: endosomal acidification in A549 cells; experiment: Endosomal acidification, LysoSensor DND-189 flow cytometry; type: cell-based, human; settings: A549 cells pretreated 12 h; C156-P1 100 nM or 1 µM, Baf-A1 100 nM
[8] = system: ATP6V0A2; experiment: ATP6V0A2 mRNA level by RT-qPCR; type: cell-based, human; settings: A549 cells, 100 nM, 48 h
[9] = system: ZIKV; settings: cited from earlier work
[10] = system: other Flaviviridae viruses; settings: cited from earlier work

Chain of V-ATPase (Q9Y487 whole entry, looked up): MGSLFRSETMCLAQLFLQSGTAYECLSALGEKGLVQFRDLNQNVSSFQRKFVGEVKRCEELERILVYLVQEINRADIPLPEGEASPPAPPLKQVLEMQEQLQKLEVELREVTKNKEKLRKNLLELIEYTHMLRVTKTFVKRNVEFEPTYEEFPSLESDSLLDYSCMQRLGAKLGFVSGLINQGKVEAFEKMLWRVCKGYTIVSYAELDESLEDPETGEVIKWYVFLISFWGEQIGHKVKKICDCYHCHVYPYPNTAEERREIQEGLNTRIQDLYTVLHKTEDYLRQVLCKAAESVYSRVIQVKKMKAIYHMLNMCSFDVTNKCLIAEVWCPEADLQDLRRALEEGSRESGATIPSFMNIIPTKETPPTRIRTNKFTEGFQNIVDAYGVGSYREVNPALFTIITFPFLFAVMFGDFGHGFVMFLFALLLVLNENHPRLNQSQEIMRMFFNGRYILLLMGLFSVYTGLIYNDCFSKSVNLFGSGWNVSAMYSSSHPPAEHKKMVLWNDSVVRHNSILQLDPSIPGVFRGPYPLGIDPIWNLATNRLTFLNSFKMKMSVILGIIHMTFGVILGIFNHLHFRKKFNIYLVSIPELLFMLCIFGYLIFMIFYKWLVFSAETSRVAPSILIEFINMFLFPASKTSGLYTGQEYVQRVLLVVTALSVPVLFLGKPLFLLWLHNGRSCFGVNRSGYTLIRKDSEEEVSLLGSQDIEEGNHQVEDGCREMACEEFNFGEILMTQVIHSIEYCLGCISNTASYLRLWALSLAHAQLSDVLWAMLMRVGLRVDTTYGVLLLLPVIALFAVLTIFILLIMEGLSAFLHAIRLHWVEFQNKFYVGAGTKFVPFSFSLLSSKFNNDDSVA

CCN(CCO)CCCC(C)Nc1ccnc2cc(Cl)ccc12 (centres unmarked) [hydroxychloroquine]
Inhibitory concentration (dose) required in mice against ZIKV [1]: 40 mg/kg

O=C(Nc1ccc([N+](=O)[O-])cc1Cl)c1cc(Cl)ccc1O [niclosamide]
EC50 [2]: ~10000 nM

COc1cc2c(O[C@@H]3O[C@H](C)[C@@H](O)[C@H](O)[C@H]3O)c3c(c(-c4ccc5c(c4)OCO5)c2cc1OC)C(=O)OC3 [PTA, patentiflorin A, reference compound]
CC50 [3]: 195 nM | SI (ratio of CC50 to EC50) [4]: 5.12 | EC50 [5]: 38.1 nM

COc1cc2c(O)c3c(c(-c4ccc5c(c4)OCO5)c2cc1OC)C(=O)OC3 [DP, diphyllin]
CC50 [3]: 16000 nM | SI (ratio of CC50 to EC50) ([4]; A549 cells, DENV-2): 39.98 | EC50 [5]: 401 nM

CO/C1=C\C(C)=C\[C@@H](C)[C@@H](O)[C@@H](C)C/C(C)=C/C=C/[C@H](OC)[C@@H]([C@@H](C)[C@@H](O)[C@H](C)[C@@]2(O)C[C@@H](O)[C@H](C)[C@@H](C(C)C)O2)OC1=O [Baf-A1, bafilomycin A1]
V-ATPase activity [6]: significantly reduced V-ATPase activity | Endosomal acidification (FITC intensity of LysoSensor DND-189) [7]: shifted the peak of FITC leftward

COc1cc2c(O[C@@H]3O[C@H](CO)[C@@H]4OC(C)(C)O[C@@H]4[C@H]3O)c3c(c(-c4ccc5c(c4)OCO5)c2cc1OC)C(=O)OC3 [PHY34, reference compound]
V-ATPase activity [6]: significantly reduced V-ATPase activity | Endosomal acidification (FITC intensity of LysoSensor DND-189) [7]: inhibited endosomal acidification | DENV-2 infection (NS3 protein, Western blot) ([4]; A549 cells, MOI = 2, 48 h, indicated concentrations): inhibited endosomal acidification and DENV-2 infection in a dose-dependent manner | ATP6V0A2 mRNA expression [8]: decrease in ATP6V0A2 mRNA expression

CCN(CC)CCCC(C)Nc1ccnc2cc(Cl)ccc12 (centres unmarked) [chloroquine]
Inhibitory concentrations necessary for ZIKV infection in cell culture [9]: micromolar range | Inhibitory concentration (dose) required in mice against ZIKV [1]: 100 mg/kg

COc1cc(N[C@H](C(=O)c2c[nH]c3ccc(OC(F)(F)F)cc23)c2ccc(Cl)cc2OC)cc(S(C)(=O)=O)c1 [JNJ-1802]
Inhibitory effects against other Flaviviridae viruses [10]: lacks inhibitory effects
